One assay deals with T1, GPR50 (Homo sapiens, UniProt Q13585).
T1 construct: purchased Promega (in-house HiBiT-GPCR construct library, NanoBRET)
In words: NanoBRET screen HiBiT-GPR50 in HEK293. It is filed as binding. How it is done: (§1) Each tracer candidate was screened across the entire library of HiBiT-GPCR constructs using NanoBRET as the detection modality. As depicted in Figure 4A, the specificity of interactions was evaluated through decrease in BRET due to competitive displacement of a bound tracer by excess parental compound. Each tracer was analyzed for binding to each HiBiT-GPCR fusion in the absence and in the presence of competing parental compound. Briefly, HEK293 cells were transfected with HiBiT-GPCR constructs diluted into promoterless DNA to reduce expression and maximize translocation to the cell surface. Each tracer candidate was then screened at concentrations of 1 μM and 0.1 μM across cells expressing these fusions. Cells were treated for 1.5 h with tracer either alone or in the presence of 20 μM competing parental compound (i.e., control). BRET was measured upon addition of purified LgBiT and subsequent complementation with HiBiT genetically fused to a GPCR. The specificity of interactions was assessed through a decrease in BRET signal due to competitive displacement of the bound tracer. To further gauge the robustness of these interactions, the fold response over the control (i.e., BRETtracer/BRETcontrol) was calculated. We chose a 1.5-fold response, which translates to ≥7-fold signal over noise as the minimal threshold required to score an interaction as positive.
(§2) HiBiT-GPCR DNA constructs were diluted in 10 mM Tris pH 8 to a final concentration of 0.01 μg/μL, arrayed in 96-well plates and stored at −20 °C. For transfection, HEK293 cells were suspended in Opti-MEM (without phenol red) supplemented with 2% fetal bovine serum (Seradigm) and 100 units/mL penicillin–streptomycin (Gibco) at a final concentration of 220,000 cells/mL and dispensed into white 96-well plates at 90 μL/well. Subsequent transfections and screens were carried using an Agilent Bravo Automated Liquid Handling Platform. First, the 96-well HiBiT DNA arrays were diluted 25-fold in Opti-MEM (without serum or phenol red) to a final concentration of 0.0004 μg/μL and 20 μL of the diluted DNAs were transferred into new 96-well plates. Next, promoterless carrier DNA (1 μg/μL) was diluted 25-fold (0.04 μg/μL) and then dispensed into the diluted arrays at 20 μL/well. Following brief mixing, Viafect transfection reagent (Promega) diluted 16-fold into Opti-MEM was dispensed into the plates at 40 μL/well. After mixing by pipetting, plates were incubated for 10 min on the pipetting station deck. The DNA-transfection reagent complexes were then added to plates containing cells. To facilitate the screen, 10 μL of DNA-transfection reagent complexes were added in duplicates to the top 4 and bottom 4 rows, resulting in two identical 48-well arrays per plate. Plates with transfected cells were incubated for 18–20 h at 37 °C/5% CO2. A screen of each tracer across the entire library using two different concentrations requires duplicate plates of transfected cells. Depending on the number of tracers being screened, transfections can be scaled up using the same ratios. The next day, for each tracer, four 20× screening solutions in tracer dilution buffer (Promega) were prepared: two duplicates at final concentration of 20 μM and two duplicates at a final concentration of 2 μM. […] The four resulting solutions were diluted 4-fold in Opti-MEM without serum or phenol red to generate 5× solutions (5 µM and 0.5 µM tracer +/− 100 μM competing compound). To screen the library, a BioTek MultiFlo FX liquid dispenser was used to dispense 22.5 µL of tracer solution to the top 4 rows and 22.5 µL tracer + competing compound solution to the 4 bottom rows. Plates were briefly mixed on an orbital shaker and incubated for 1.5 h at room temperature. […] Plates were briefly mixed on an orbital shaker and incubated for 15 min to allow complementation.
(In general: In BRET a luciferase serves as donor, and the signal depends on an acceptor being close.)

In a further assay the target is T2, ADRA2A (Homo sapiens, UniProt P08913).
T2 construct: purchased Promega (in-house HiBiT-GPCR construct library, NanoBRET)
T2 sequence (P08913 1-465): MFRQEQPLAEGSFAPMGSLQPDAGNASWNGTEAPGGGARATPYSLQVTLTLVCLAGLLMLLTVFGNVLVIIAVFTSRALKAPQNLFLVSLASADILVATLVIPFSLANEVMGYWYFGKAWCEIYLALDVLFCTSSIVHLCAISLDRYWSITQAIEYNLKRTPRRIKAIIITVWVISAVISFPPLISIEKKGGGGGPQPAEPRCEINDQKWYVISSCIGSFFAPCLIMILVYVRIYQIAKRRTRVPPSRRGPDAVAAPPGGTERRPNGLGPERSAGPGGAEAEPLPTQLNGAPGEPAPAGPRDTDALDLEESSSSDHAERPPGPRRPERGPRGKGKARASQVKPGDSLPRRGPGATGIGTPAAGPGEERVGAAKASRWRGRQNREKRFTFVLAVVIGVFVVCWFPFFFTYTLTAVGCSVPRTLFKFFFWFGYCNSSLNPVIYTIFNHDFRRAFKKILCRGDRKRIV
In words: NanoBRET screen HiBiT-ADRA2A in HEK293. Format: binding. How it is done:
as §1, §2

T1 sequence (Q13585 whole entry): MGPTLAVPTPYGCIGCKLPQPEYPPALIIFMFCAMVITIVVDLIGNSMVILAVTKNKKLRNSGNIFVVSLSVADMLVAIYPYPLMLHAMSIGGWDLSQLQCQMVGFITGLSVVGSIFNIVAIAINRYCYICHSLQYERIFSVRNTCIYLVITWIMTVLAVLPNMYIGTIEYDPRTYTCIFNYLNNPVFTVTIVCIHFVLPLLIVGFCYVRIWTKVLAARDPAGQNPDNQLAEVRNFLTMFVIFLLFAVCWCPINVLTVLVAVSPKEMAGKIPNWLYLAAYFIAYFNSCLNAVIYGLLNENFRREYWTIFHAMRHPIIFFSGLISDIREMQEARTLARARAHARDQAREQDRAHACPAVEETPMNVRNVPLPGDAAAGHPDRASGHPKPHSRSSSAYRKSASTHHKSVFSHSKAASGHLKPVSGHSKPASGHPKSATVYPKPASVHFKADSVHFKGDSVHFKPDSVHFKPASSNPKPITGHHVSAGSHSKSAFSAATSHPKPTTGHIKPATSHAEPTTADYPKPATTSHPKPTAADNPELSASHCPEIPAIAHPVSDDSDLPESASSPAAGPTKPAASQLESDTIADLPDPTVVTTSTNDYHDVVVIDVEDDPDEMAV

Consider `COc1ccc2c(n1)c(CCNC(C)=O)cn2CCNC(=O)CCc1ccc2n1[B-](F)(F)[N+]1=C(c3ccc[nH]3)C=CC1=C2` [Azamelatonin-1-NB590], for which the “NanoBRET Fold Response” value came to 0.95 at GPR50 (0.1μM tracer), 0.91 on GPR50 (1μM tracer), 1.08 at ADRA2A (0.1μM tracer) and 1.01 on ADRA2A (1μM tracer).

As to `O=C(CCOCCOCCOCCOCCNC(=O)CCc1ccc2n1[B-](F)(F)[N+]1=C(c3ccc[nH]3)C=CC1=C2)NCCCN1CCN(C2=Nc3ccccc3Oc3ccc(Cl)cc32)CC1` [Loxapine-a-2-NB590], the “NanoBRET Fold Response” value turned out to be 0.74 on GPR50 (GPR50, tracer 0.1μM); 1.09 at GPR50 (GPR50, tracer 1μM); 0.99 on ADRA2A (ADRA2A, tracer 0.1μM); 1.02 at ADRA2A (ADRA2A, tracer 1μM).

On to `COc1ccccc1N1CCN(CCCCN2C(=O)c3ccc(CNC(=O)CCOCCOCCOCCOCCNC(=O)CCc4ccc5n4[B-](F)(F)[N+]4=C(c6ccc[nH]6)C=CC4=C5)cc3C2=O)CC1` [NAN-190-2-NB590], for which the “NanoBRET Fold Response” value at GPR50 (GPR50, tracer 0.1μM) stood at 1.00; on ADRA2A (ADRA2A, tracer 0.1μM) it was 2.17; at ADRA2A (ADRA2A, tracer 1μM), 3.08.

`CC(C)N(CC[C@H](c1ccccc1)c1cc(CCNC(=O)c2ccc(CNC(=O)CCc3ccc4n3[B-](F)(F)[N+]3=C(c5ccc[nH]5)C=CC3=C4)cc2)ccc1O)C(C)C` [Tolterodine-BZ-NB590]: the “NanoBRET Fold Response” value at GPR50 (GPR50, tracer 0.1μM) came to 0.94; at GPR50 (GPR50, tracer 1μM), 0.39; on ADRA2A (ADRA2A, tracer 0.1μM), 1.08; at ADRA2A (ADRA2A, tracer 1μM) it was 1.07.

As to `O=C(CCc1ccc2n1[B-](F)(F)[N+]1=C(c3ccc[nH]3)C=CC1=C2)NCCOCCOCCNC(=O)OCCOCCN1CCN(C2=Nc3ccccc3Sc3ccccc32)CC1` [Quetiapine-a-2-NB590], the “NanoBRET Fold Response” value on GPR50 (GPR50, tracer 0.1μM) came to 1.11; on GPR50 (GPR50, tracer 1μM) it was 0.96; at ADRA2A (ADRA2A, tracer 0.1μM) it was 1.10; at ADRA2A (ADRA2A, tracer 1μM), 1.22.

In the case of `CC(C)N(CC[C@H](c1ccccc1)c1cc(CCNC(=O)CCOCCOCCOCCOCCNC(=O)CCc2ccc3n2[B-](F)(F)[N+]2=C(c4ccc[nH]4)C=CC2=C3)ccc1O)C(C)C` [Tolterodine-2-NB590], the “NanoBRET Fold Response” value was found to be 1.12 at GPR50 (GPR50, tracer 0.1μM); 0.93 on GPR50 (GPR50, tracer 1μM); 1.00 at ADRA2A (ADRA2A, tracer 0.1μM); 1.02 at ADRA2A (ADRA2A, tracer 1μM).

As for `Cc1cc2c(s1)Nc1ccccc1N=C2N1CCN(CCCNC(=O)CCOCCOCCOCCOCCNC(=O)CCc2ccc3n2[B-](F)(F)[N+]2=C(c4ccc[nH]4)C=CC2=C3)CC1` [Olanzapine-a-2-NB590], the “NanoBRET Fold Response” value at GPR50 (GPR50, tracer 0.1μM) is 1.01; on GPR50 (GPR50, tracer 1μM) it was 1.03; on ADRA2A (ADRA2A, tracer 0.1μM) it was 1.00; on ADRA2A (ADRA2A, tracer 1μM), 1.04.

Consider `N#CN=C(NCCCOc1cccc(CN2CCCCC2)c1)NCCNC(=O)CCOCCOCCOCCOCCNC(=O)CCc1ccc2n1[B-](F)(F)[N+]1=C(c3ccc[nH]3)C=CC1=C2` [Aminopotentidine-2-NB590], for which the “NanoBRET Fold Response” value worked out at 1.02 at GPR50 (GPR50, tracer 0.1μM); 0.97 on GPR50 (GPR50, tracer 1μM); 1.04 at ADRA2A (ADRA2A, tracer 0.1μM); 1.26 on ADRA2A (ADRA2A, tracer 1μM).

With `Cc1nc2n(c(=O)c1CCN1CCC(c3noc4cc(F)ccc34)CC1)CCCC2OC(=O)NCCOCCOCCOCCOCCNC(=O)CCc1ccc2n1[B-](F)(F)[N+]1=C(c3ccc[nH]3)C=CC1=C2` (stereo not drawn) [Risperidone-2-NB590], the “NanoBRET Fold Response” value is 0.99 at GPR50 (GPR50, tracer 0.1μM); 1.01 on GPR50 (GPR50, tracer 1μM); 1.29 on ADRA2A (ADRA2A, tracer 0.1μM); 2.34 at ADRA2A (ADRA2A, tracer 1μM).

In the case of `CN(C)CCC=C1c2ccccc2CCc2ccc(C(=O)NCCNC(=O)CCOCCOCCOCCOCCNC(=O)CCc3ccc4n3[B-](F)(F)[N+]3=C(c5ccc[nH]5)C=CC3=C4)cc21` [Amitriptyline-b-2-NB590], the “NanoBRET Fold Response” value on GPR50 (GPR50, tracer 0.1μM) was 0.99; on GPR50 (GPR50, tracer 1μM), 0.99; on ADRA2A (tracer at 0.1μM, listed as amitriptyline-b-2-NB590), 1.11; at ADRA2A (tracer at 1μM, listed as amitriptyline-b-2-NB590) it was 1.00.

The record behind these values is PMC8151276, “An Integrated Approach toward NanoBRET Tracers for Analysis of GPCR Ligand Engagement” (Molecules, 2021).
